Reference: patent publication US12180159B2, “Activators of the unfolded protein response” (The Board of Trustees of the University of Illinois, priority 2018, dated 2024)

Experiments:
[1] = tested on: ERα positive breast cancer; assay: Mouse xenograft model of ERα positive breast cancer (BHPI); assay type: in vivo; details: at reasonable doses
TYS-Luc cells = assay: Long-term cell culture experiment, TYS-Luc cells (MTS); assay type: cell-based, human; details: 2 weeks 1 μM, then 4 weeks without drug
Description: To simulate the effect of several weeks of treatment of a tumor in a mouse xenograft, long-term cell culture experiments were performed. TYS-Luc cells (T47DERαY537S-Luc cells; ERαY537S is the most lethal ERα mutation seen in metastatic breast cancer) were plated at 4,000 cells/well in 96 well plates. […] After 2 weeks (medium change every 2 days) cell number was determined using MTS and a standard curve of absorbance versus cell number for TYS-Luc cells. Notes: (i) Bars denote the BHPI and (−)-105 arms of the experiment. No drug is present during regrow. […] This allows any surviving cells to regrow. After 4 weeks the cells were assayed using MTS. […] (Note: Visual inspection of the wells confirmed that there were no cells in the well treated for 2 weeks with active (−)-105.) To test whether the cells that regrew after BHPI treatment were resistant to BHPI they were re-treated for another cycle (BHPI Retreat) and shown to retain sensitivity to BHPI killing. (n=8 biological replicates±SEM.

[2] = tested on: T47D, TYS-4 and TDG-1 cells; assay: MTS proliferation assay, T47D, TYS and TDG cells; assay type: cell-based, human; details: 4 days
Description: FIG. 30 compares the ability of BHPI and test compounds to inhibit proliferation of T47D, TYS and TDG cells. T47D cells were in medium containing 10 FBS (which contains estrogen), TYS-4 and TDG-1 cells were in medium containing 10% cd-FBS (estrogen depleted). Cells are plated at 2,000 cells/well in 96 well plates. After 24 hours in medium containing FBS or charcoal-dextran treated FBS (depleted of endogenous estrogens), the indicated concentration of each compound (in DMSO at 1/1000th of the volume of medium) was added. After 2 days the medium was changed, and the compounds were added again. After 2 additional days (4 days total) MTS assays are used to evaluate cell proliferation. (n=6±S.E.M.).

Caov-3 cells = assay: Cell death of Caov-3 ovarian cancer cells (automated Trypan Blue exclusion); assay type: cell-based, human; details: 24 hours
Description: FIG. 33. 105, but not BHPI, kills therapy-resistant ovarian CaOV-3 ovarian cancer cells. (±)-105; Cell death assay: Automated Trypan Blue exclusion. (24 hours post (±)-105) FIG. 34. (−)105 nearly eradicates ER+ drug-resistant tumors. Orthotopic breast cancer model, TYS-Luc cells, 40 mg/kg (−)-105 i.p., daily. 7 d Post injection image is a much longer exposure at higher gain than before injection image.
Caov3: Drug resistant ERα positive ovarian cancer cells. […] These cells are completely resistant to tamoxifen and fulvestrant and partially resistant to cisplatin and paclitaxel.

[3] = tested on: ERα Negative MCF-10A cells; assay: Trypan Blue exclusion cell death assay, MCF-10A cells; assay type: cell-based; details: 75 nM, 24 hours
From the text: (§1) TRYPAN BLUE: For decades, viable cells have been measured by their ability to exclude the dye Trypan Blue. […] Dead cells, which have lost membrane integrity, take up the dye and are blue. Thus, the percentage of dead cells is the percentage of cells that are Trypan Blue positive out of the total cell population. Quantitative assessment of Trypan Blue uptake uses a cell counter from Fisher. Since the assay is instrument based, there is no observer bias in determining the percentage of Trypan Blue positive cells.
(§2) TRYPAN BLUE ASSAYS: Assays are performed on cells in 6 well plates: 300,000 cells are plated in each well of a 6 well plate in 3 ml of medium. After 24 hours, the DMSO vehicle or the indicated compound is added (in 1000th of the vol.) The cells incubated for an additional 24 hours, and then harvested in 0.25 ml of trypsin, followed after harvest by 0.75 ml of medium. The cells are spun down and resuspended in 100-200 μl of medium left that is over the cell pellet (resuspend cells by pipetting up and down a few times). Add 10 μl to 10 μl of trypan blue. Then 10 μl is inserted into the counting slide. After inserting the slide into the Fisher TC20 counting is automatic (these many cells are needed because an accurate ratio of Trypan Blue positive to Trypan Blue negative cells requires about 200 cells in the field the instrument counts).
In FIG. 28, neither the test compounds nor BHPI kill non-tumorigenic ERα Negative MCF-10A breast cells. ERα Negative MCF-10A cells were maintained for 24 hours in DMSO vehicle or 75 nM of BHPI or 75 nM of each of the indicated test compounds: 4, 6 and 105. Cell death was determined using the instrument-based Trypan Blue exclusion assay. (n=3±SEM).

[4] = tested on: (BHPI-sensitive) parental T47D cells; assay: Growth of parental T47D cells (MTS); assay type: cell-based, human; details: 100 nM and 1 μM, 4 days
Description: (§3) ERα containing T47D human breast cancer cells able to survive in 1 μM BHPI were selected by clonal outgrowth. The effect of 100 nM and 1 μM BHPI and (−)-105 on growth of the (BHPI-sensitive) parental T47D cells and partially BHPI-resistant T47D clones 1, 3, 8, and 11 was evaluated. 4,000 cells/well were plated. Cell number was determined by MTS assay from a standard curve of absorbance versus cell number. […] Thus, in 4 days (−)-105 killed some, but not all, of the resistant cells.

[5] = tested on: partially BHPI-resistant T47D clones 1, 3, 8, and 11; assay: Growth of partially BHPI-resistant T47D clones (MTS); assay type: cell-based, human; details: 100 nM and 1 μM, 4 days
Description: as §3

TDG cells (T47DERαD538G) = assay: Trypan Blue exclusion cell death assay, TDG cells; assay type: cell-based, human; details: 24 hours
From the text: as §1, §2
The Trypan Blue cell death assay was used to evaluate the ability of the active enantiomer of C-105 [(−)-105] to kill ERα positive TDG-Luc cells. For all studies, 300,000 TDG-Luc cells/well in 10% FBS were plated in a 6 well plate in triplicate. 24 hours after plating, the indicated concentrations the active enantiomer of (−)-105, or BHPI (top) ICI, or OHT (Lower left) or (+)-105 (lower right) were added. After 24 hours, the cells were harvested, and the % dead cells was determined by automated Trypan Blue exclusion using the Countess II automated hemocytometer. Percentage of viable cells was calculated by doing 100−(Cell Death %). (n=3±SEM).
TDG cells were incubated for 24 hours with 75 nM of BHPI or 75 nM of each of the indicated test compounds: 4, 6 and (±)-105 (enantiomers not separated). Cell death was determined using the instrument-based Trypan Blue exclusion assay. Structures are in the Synthesis section. […] (n=3±SEM).

T47D cells [6] = details: 24 hours, up to 1,000 nM
Description: One such change is loss of plasma membrane polarity. This is monitored using Annexin V. Dying cells also take up the dye propidium iodide. Propidium iodide (PI) fluoresces when it is intercalated into DNA. These assays monitor cells at specific stages of cell death.
FLOW CYTOMETRY (FITC) ASSAYS: Cells were seeded in 12-well plates, 75,000 cells/well, and allowed to adhere overnight. The next day, the indicated concentrations of raptinal (positive control), (−)-105, (±)-105, and (+)-105 were added and allowed to incubate at 37° C. for 24 hours (Final Volume: 1 ml, 0.1% DMSO). After incubation, cells were harvested and resuspended in 350 μl of cold Annexin binding buffer (10 mM HEPES, 140 mM NaCl, 2.5 mM CaCl2, pH 7.4) premixed with Annexin V-FITC and PI dyes. Samples were analyzed on a BD Biosciences LSRII flow cytometer, and data analysis was performed using FSC Express Version 5-6. Cell death was assessed relative to a DMSO treated control.
T47D, human breast cancer cells were plated at 75,000 cells/well. […] After 24 hours viable cells were determined by FACS using annexin V-FITC and propidium iodide dyes. […]
75,000 ERα positive T47D, human breast cancer cells, were plated/well. […] After 24 hours viable cells were determined by FACS using annexin V-FITC and propidium iodide dyes. […]

[7] = tested on: ATP levels in TYS-Luc cells; assay: Intracellular ATP levels; assay type: cell-based, human; details: 10,000 nM thapsigargin with 1,000 nM (−)-105, 1 hr
Description: TYS-Luc cells were maintained DMSO vehicle (Veh), 1,000 nM BHPI, 1,000 nM (−)-105 with and without 10,000 nM thapsigargin (THG) for the indicated times. ATP levels were determines using a kit and relative ATP levels were from a standard curve. […] (n=3±SEM).

MCF-7 and TYS-Luc cells = assay: Cell death with 2-APB or thapsigargin (Trypan Blue exclusion); assay type: cell-based, human; details: thapsigargin, TYS-Luc cells, 1 hour
Description: ERα positive MCF-7 and TYS-Luc were treated with DMSO vehicle (Veh), or BHPI or (−)-105 plus or minus 2-APB for the indicated times. Cells death was determined using the instrument-based Trypan Blue exclusion assay. […] This is consistent with (−)-105 inducing powerful lethal activation of the anticipatory UPR pathway. (n=3±SEM). […] TYS-Luc cells were maintained in DMSO vehicle (Veh) or BHPI, or (−)-105 with or without thapsigargin (THG) for the indicated times. Blocking the decline in ATP levels (FIG. 19) with THG inhibited (−)-105-induced cell death. […] (n=3±SEM).

T47D cells [8] = assay: Trypan Blue exclusion cell death assay, T47D cells; assay type: cell-based, human; details: 75 nM, 24 hours
From the text: as §1
TRYPAN BLUE ASSAYS: Assays are performed on cells in 6 well plates: 300,000 cells are plated in each well of a 6 well plate in 3 ml of medium. After 24 hours, the DMSO vehicle or the indicated compound is added (in 1000th of the vol.) The cells incubated for an additional 24 hours, and then harvested in 0.25 ml of trypsin, followed after harvest by 0.75 ml of medium. […]
T47D cells were incubated for 24 hours with 75 nM of BHPI or 75 nM of each of the indicated test compounds: 4 and 6. Cell death was determined using the instrument-based Trypan Blue exclusion assay. […]
T47D cells were treated for 24 hours with 100 nM BHPI, or with 100 nM of each of the test compounds: 6, 8, and 105. […] Cell death was determined using the instrument-based Trypan Blue exclusion assay. […]

TYS cells (T47DERαY537S) = assay: Trypan Blue exclusion cell death assay, TYS cells; assay type: cell-based, human; details: 24 hours
From the text: as §1, §2
TYS cells were incubated for 24 hours with 35 nM of BHPI or 35 nM of each of the indicated test compounds: 2, 4, and 105. Cell death was determined using the instrument-based Trypan Blue exclusion assay. (n=3±SEM).
TYS cells were incubated for 24 hours with 50 nM of BHPI or 50 nM of each of the indicated test compounds: 4, 6 and 105. Cell death was determined using the instrument-based Trypan Blue exclusion assay. (n=3±SEM).

Cc1cccc2c1NC(=O)C2(c1ccc(O)cc1)c1ccc(O)cc1 [BHPI, reference compound]
effect on tumor growth [1]: stopped tumor growth and induced rapid and substantial tumor regression | regrowth of cells after treatment (TYS-Luc cells): robust regrowth | effect on tumor growth / tumors (OVCAR-3 cells; OVCAR-3 orthotopic xenograft): strongly reduced tumor growth | tolerability in mice (OVCAR-3 cells; in both studies): well tolerated | inhibition of proliferation [2]: effectively inhibit proliferation | killing of Caov-3 ovarian cancer cells (Caov-3 cells): blocks growth of Caov-3 cells but does not kill them | death of ERα Negative MCF-10A cells [3]: neither BHPI nor any of the test compounds induce significant death | growth / killing of parental T47D cells [4]: blocked growth and killed many of the T47D cells | growth of the BHPI-resistant clones [5]: inhibited growth but could not stop growth of the resistant clones

CC/C(=C(\c1ccc(O)cc1)c1ccc(OCCN(C)C)cc1)c1ccccc1 [OHT, z-4-hydroxytamoxifen, reference compound]
killing of TDG-Luc cells (TDG cells (T47DERαD538G); dose response, TDG-Luc cells): do not kill | cytotoxic or cytostatic phenotype (T47D cells [6]): cytostatic

C/C=C(/C)C(=O)O[C@H]1C(C)=C2[C@H]([C@@H]1OC(=O)CCCCCCC)[C@@](C)(OC(C)=O)C[C@H](OC(=O)CCC)[C@@]1(O)[C@H]2OC(=O)[C@@]1(C)O [THG, thapsigargin, reference compound]
effect on (−)-105-induced decline in ATP levels [7]: completely blocked | effect on (−)-105-induced cell death (MCF-7 and TYS-Luc cells): strong inhibition

COc1ccc(C2(c3ccc(O)cc3)C(=O)Nc3c(C(F)(F)F)cccc32)cc1 (stereo not shown) [compound 4, 3-(4-hydroxyphenyl)-3-(4-methoxyphenyl)-7-(trifluoromethyl)indolin-2-one]
ability to kill TDG cells compared to BHPI (TDG cells (T47DERαD538G); 75 nM): greatly increased ability to kill | ability to kill T47D cells (wild type estrogen receptor) (T47D cells [8]): greatly increased ability to kill | effectiveness in killing ERα positive breast cancer cells compared to BHPI [2]: more effective than BHPI | death of ERα Negative MCF-10A cells [3]: neither BHPI nor any of the test compounds induce significant death | ability to kill TYS cells compared to BHPI (TYS cells (T47DERαY537S); 35 nM): greatly increased ability to kill | ability to kill TYS cells compared to BHPI (TYS cells (T47DERαY537S); 50 nM): increased ability to kill
